Target: T1, PaAtg18 (Atg18) (Ogataea angusta, UniProt Q5QA94)
T1 sequence (Q5QA94 1-525): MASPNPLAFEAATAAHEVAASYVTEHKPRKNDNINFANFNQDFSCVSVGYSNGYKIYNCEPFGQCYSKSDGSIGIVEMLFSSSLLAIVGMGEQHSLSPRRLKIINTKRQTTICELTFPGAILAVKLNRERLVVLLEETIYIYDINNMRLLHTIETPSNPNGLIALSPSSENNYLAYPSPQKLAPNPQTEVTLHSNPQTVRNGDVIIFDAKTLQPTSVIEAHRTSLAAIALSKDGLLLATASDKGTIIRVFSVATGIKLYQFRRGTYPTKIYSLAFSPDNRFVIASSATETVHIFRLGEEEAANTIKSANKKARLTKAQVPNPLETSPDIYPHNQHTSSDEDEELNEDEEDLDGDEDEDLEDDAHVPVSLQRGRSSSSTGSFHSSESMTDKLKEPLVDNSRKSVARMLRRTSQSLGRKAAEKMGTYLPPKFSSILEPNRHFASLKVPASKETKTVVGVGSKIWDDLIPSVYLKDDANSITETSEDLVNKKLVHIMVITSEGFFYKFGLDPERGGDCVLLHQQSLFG
Assay: isothermal titration calorimetry
Assay type: binding

Kd [µM] | SMILES
85.6 ± 23.5 | O=P(O)(O)O[C@H]1[C@H](O)[C@@H](O)[C@H](OP(=O)(O)O)[C@@H](OP(=O)(O)O)[C@H]1O [Ins(1,3,4)P3]
37.4 ± 1.3 | O=P(O)(O)O[C@H]1[C@H](O)[C@@H](OP(=O)(O)O)[C@H](O)[C@@H](OP(=O)(O)O)[C@H]1O [Ins(1,3,5)P3]
116 ± 14 | O=P(O)(O)O[C@@H]1[C@H](O)[C@H](O)[C@@H](OP(=O)(O)O)[C@H](OP(=O)(O)O)[C@H]1O [Ins(1,4,5)P3]

— article doi:10.1101/2025.01.31.635529v3 (biorxiv, 2025)
